This is an account of results in US4001418A, “1'-Substituted-thioxanthene-9-spiro-4'-piperidine derivatives and the 10-oxides and 10,10-dioxides thereof” (priority 1974, dated 1977).

The structures appear in SMILES notation.

The nature of one data set: oral LD50 in mice. As to conditions: mouse, in vivo.
The nature of a further data set: intravenous LD50. As to conditions: mouse, in vivo. How it is done:
The corresponding intravenous LD50 is 30 mg./kg. Other LD50 values for compounds of the invention when dosed intravenously are as follows: […]

As to `CN1CCC2(CC1)c1ccccc1Sc1c(O)cccc12` [4-hydroxy-1'-methylthioxanthene-9-spiro-4'-piperidine], the LD50 in the data set “oral LD50 in mice” was above 500 mg/kg; in “intravenous LD50” (mice, read-out: intravenous LD50) it was 30 mg/kg.
In the case of `CCCN1CCC2(CC1)c1ccccc1Sc1c(O)cccc12` [n-Pr 4-OH H H H S], the LD50 in “intravenous LD50” (table 1, read-out: LD50) is 35 mg/kg.
On the same count and under the same terms, for `CC(=O)Oc1cccc2c1Sc1cc(Cl)ccc1C21CCN(C)CC1` [Me 4-OAc H 6-Cl H S] the value was above 50 mg/kg; for `C=CCN1CCC2(CC1)c1ccccc1Sc1c(O)cccc12` [Allyl 4-OH H H H S, 4-hydroxy-1'-allylthioxanthene-9-spiro-4'-piperidine], 43 mg/kg.
